Paper PMC9385959, “Mammalian derived lipocalin and secretoglobin respiratory allergens strongly bind ligands with potentially immune modulating properties” (Frontiers in Allergy, 2022)
Like-named read-outs stand apart in the source and are kept apart here.

Columns and labels:
Cav p 1.0101 = Cav p 1.0101 (Cavia porcellus, UniProt A0A484HM70, S19A); assay: Competitive fluorescence-quenching assay, Cav p 1.0101; assay type: binding, guinea pig; details: for inhibition at 50 µM: 5 μM Cav p 1.0101-1-AMA complex, 50 μM ligand, n = 2
Method: (§1) Fluorescence quenching assays were performed as previously described ([45]), with modifications. Fluorochromes and ligands were purchased from Sigma Aldrich (Steinheim, Germany), Carl Roth (Karlsruhe, Germany) and TCI Europe N.V. (Zwijndrecht, Belgium).
(§2) Stock solutions were prepared at a concentration of 10 mM in 100% ethanol for the fluorochromes 1-aminoanthracene (1-AMA), 8-anilino-1-naphthalensulfonic acid (1,8-ANS) and for all ligands, and in 100% methanol for n-phenyl-1-naphthylamine (1-NPN), respectively. Iron catecholate ligands (siderophores) were prepared as previously described ([46]). Fluorochrome-protein complexes were analyzed at an equimolar concentration of 5 μM in PBS with 5% ethanol in a volume of 100 μL per well in black 96-well non-binding microplates (Greiner Bio-One GmbH, Frickenhausen, Germany). Solutions containing only protein or the respective fluorescent probe in PBS with 5% ethanol served as controls. Fluorochrome-protein complexes were incubated with orbital shaking for 10 min at 500 rpm at room temperature (RT) before measurement using the fluorescence reader TECAN Infinite 200 Pro (Tecan Trading AG, Switzerland). Excitation wavelengths were fixed at 380 nm for 1-AMA and 1,8-ANS, and 337 nm for 1-NPN. Fluorescence emission spectra were recorded in 5 nm steps between 420 and 560 nm for 1-AMA and 1,8-ANS and between 380 and 500 nm for 1-NPN. The establishment of fluorescent quenching assay parameters for each allergen is explained in the results Section Fluorescence-quenching assay set up. Binding affinities were analyzed by non-linear regression in GraphPad Prism Version 9.3.1 (GraphPad Software, LLC). For the ligand competition assays, ligands were added to fluorochrome-allergen complexes with a final buffer composition of 5% ethanol in PBS in a volume of 100 μL and incubated for 30 min at 500 rpm at RT and further equilibrated for another 30 min without shaking before fluorescence measurement.
(§3) The binding affinities of non-fluorescent ligands is inferred to by their ability to compete and displace the fluorochromes bound to the allergen at a certain concentration. This leads to a measurable decrease in fluorescence intensity that will be expressed as fluorescence inhibition (Figure 6). For a given allergen, the ligand with the strongest inhibition has the highest binding affinity. […] Competitive ligand binding was analyzed by non-linear regression and inhibitory dissociation constants (Ki) were calculated.

Cav p 1.0201 = Cav p 1.0201 (Cavia porcellus, UniProt A0A484HRI4); assay: Competitive fluorescence-quenching assay, Cav p 1.0201; assay type: binding, guinea pig; details: for inhibition at 50 µM: 5 μM Cav p 1.0201-1-AMA complex, 50 μM ligand, n = 2
Method: as §1, §2, §3

Ory c 2 = assay: Competitive fluorescence-quenching assay, Ory c 2; assay type: binding, rabbit; details: for Mean fluorescence inhibition: 5 μM Ory c 2-1-AMA complex, 50 μM ligand, n = 2; for Ki: 5 μM Ory c 2, fluorochrome 1-AMA, read-out: Ligand inhibition constant Ki
Method: as §1, §2, §3

Fel d 1 = target: T1, Fel d 1 (Felis catus, UniProt P30438+P30440); assay: Competitive fluorescence-quenching assay, Fel d 1; assay type: binding, cat; details: for Ki: Ligand inhibition constant Ki
T1 construct: polyhistidine tag (C); made in house; host or cells: E. coli Rosetta-gami 2
T1 sequence (P30438+P30440 with tags, fused parts or gaps): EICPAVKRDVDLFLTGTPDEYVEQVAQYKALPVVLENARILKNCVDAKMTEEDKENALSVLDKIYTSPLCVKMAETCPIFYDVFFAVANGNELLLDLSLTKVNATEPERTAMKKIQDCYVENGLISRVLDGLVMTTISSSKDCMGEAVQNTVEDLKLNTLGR
Method: as §1, §2, §3

Ory c 3 = Ory c 3 (Oryctolagus cuniculus, UniProt Q9GK63+Q9GK67); assay: Competitive fluorescence-quenching assay, Ory c 3; assay type: binding, rabbit; details: for inhibition at 50 µM: read-out: Mean fluorescence inhibition
Method: as §1, §2, §3

Can f 6 = target: T2, Can f 6 (Canis lupus familiaris, UniProt H2B3G5); assay: Competitive fluorescence-quenching assay, Can f 6; assay type: binding, dog; details: 5 μM Can f 6-1-NPN complex, 100 μM ligand; high standard error; read-out: Mean fluorescence inhibition
T2 construct: polyhistidine tag (C); made in house; host or cells: E. coli Rosetta-gami 2
T2 sequence (H2B3G5 16-190): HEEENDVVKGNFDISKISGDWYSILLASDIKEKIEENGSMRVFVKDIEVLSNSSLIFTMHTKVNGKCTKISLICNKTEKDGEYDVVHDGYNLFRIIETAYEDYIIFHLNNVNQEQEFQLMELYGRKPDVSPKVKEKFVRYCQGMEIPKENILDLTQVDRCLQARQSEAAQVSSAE
Method: as §1, §2, §3

Fel d 4 = target: T3, Fel d 4 (Felis catus, UniProt Q5VFH6); assay: Competitive fluorescence-quenching assay, Fel d 4; assay type: binding, cat; details: for inhibition at 100 µM: 5 μM Fel d 4-1-NPN complex, 100 μM ligand, read-out: Mean fluorescence inhibition
T3 construct: polyhistidine tag (C); made in house; host or cells: E. coli Rosetta-gami 2
T3 sequence (Q5VFH6 16-186): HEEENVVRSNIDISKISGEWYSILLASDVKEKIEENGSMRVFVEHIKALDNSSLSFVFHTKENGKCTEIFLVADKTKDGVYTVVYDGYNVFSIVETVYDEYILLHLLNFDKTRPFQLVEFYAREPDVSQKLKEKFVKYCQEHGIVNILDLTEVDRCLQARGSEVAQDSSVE
Method: as §1, §2, §3

Can f 1 = target: T4, Can f 1 (Canis lupus familiaris, UniProt O18873); assay: Competitive fluorescence-quenching assay, Can f 1; assay type: binding, dog; details: for inhibition at 50 µM: read-out: Mean fluorescence inhibition
T4 construct: made in house; host or cells: E. coli Rosetta-gami 2(DE3)
Method: as §1, §2, §3

human LCN1 = target: T5, human LCN1 (Homo sapiens, UniProt P31025); assay: Competitive fluorescence-quenching assay, LCN1; assay type: binding; details: for inhibition at 50 µM: 5 μM LCN1-1,8-ANS complex, 50 μM ligand, n = 2
T5 construct: made in house; host or cells: E. coli Rosetta-gami 2(DE3)
Method: as §1, §2, §3

[1] = Ligand inhibition constant Ki, 5 μM Cav p 1.0101, fluorochrome 1-AMA
[2] = read-out: Mean fluorescence inhibition, 5 μM Fel d 1 + 1,8-ANS complex, 100 μM ligand
[3] = 5 μM Ory c 3-1-AMA complex, 50 μM ligand, n = 2
[4] = 5 μM Fel d 1 + 1,8-ANS complex, 100 μM ligand, read-out: Mean fluorescence inhibition
[5] = 5 μM Fel d 1 + 1-NPN complex, 100 μM ligand, read-out: Mean fluorescence inhibition
[6] = read-out: Mean fluorescence inhibition, 5 μM Fel d 1 + 1-NPN complex, 100 μM ligand

| Compound | inhibition at 50 µM (Cav p 1.0101) [%] | inhibition at 50 µM (Cav p 1.0201) [%] | Mean fluorescence inhibition (Ory c 2) [%] | inhibition at 100 µM (Fel d 1; [2]) [%] | inhibition at 50 µM (Ory c 3; [3]) [%] | inhibition at 100 µM (Fel d 1; [4]) [%] | also measured |
| --- | --- | --- | --- | --- | --- | --- | --- |
| CCCCCCCCCCO [1-Decanol, 1-decanol] | 99 | 98.2 | 75.1 | 68.4 | 98 | – | Ki (Cav p 1.0101; [1]): 800 nM; Ki (Cav p 1.0201): 1100 nM; Ki (Ory c 3): 700 nM |
| CCCCCCCCCCCCO [1-Dodecanol, 1-dodecanol] | 98.9 | 97 | 84.6 | – | 95.6 | 44.2 | – |
| CC(C)c1ccccc1O [2-Isopropylphenol, 2-isopropylphenol] | – | – | – | – | – | – | inhibition at 100 µM (Can f 6): 105%; Ki (Fel d 4; 5 μM Fel d 4, fluorochrome 1-NPN, to be interpreted with caution, imprecise Ki values, read-out: Ligand inhibition constant Ki): 20100 nM; inhibition at 100 µM (Fel d 4): 99.5% |
| CC(C)CCCC(C)CCO (centres unmarked) [3,7-dimethyl-1-octanol] | 96.4 | 80.3 | 72.5 | – | 91.1 | 58.3 | inhibition at 100 µM (Can f 6): 100%; inhibition at 100 µM (Fel d 1; [5]): 85.4%; inhibition at 100 µM (Fel d 4): 89.5% |
| CC(C)c1cccc(O)c1 [3-Isopropylphenol, 3-ilsopropylphenole] | 55.3 | 75.7 | 89.5 | – | – | – | inhibition at 100 µM (Can f 6): 107%; inhibition at 100 µM (Fel d 4): 89.5% |
| CCCc1ccc(O)cc1 [4-Propylphenol, 4-propylphenol] | 65.7 | 57 | 93.2 | 52.8 | 93.2 | – | Ki (Ory c 2): 2600 nM; inhibition at 100 µM (Fel d 1; [6]): 65.3% |
| CCCCC/C=C\C/C=C\C/C=C\C/C=C\CCCC(=O)O [Arachidonic acid, arachidonic acid] | – | – | – | – | – | – | Ki (Can f 1): 1300 nM; inhibition at 50 µM (Can f 1): 86.4%; Ki (human LCN1; 5 μM LCN1, fluorochrome 1,8-ANS, read-out: Ligand inhibition constant Ki): 1900 nM; inhibition at 50 µM (human LCN1): 96.7% |
| CCCCCCCCO [Caprylic alcohol, 1-octanol] | 86.7 | 82.1 | 65.3 | – | 68.8 | 56.5 | inhibition at 100 µM (Fel d 1; [5]): 49.2% |
| CCCCCCCCCC(=O)O [Decanoic acid, decanoic acid] | – | – | – | 71.2 | 76.1 | – | inhibition at 100 µM (Fel d 1; [6]): 101% |
| CCCCCCCCCCCC(=O)O [Dodecanoic acid, dodecanoic acid] | – | – | – | 75.2 | – | – | Ki (Fel d 1; 5 μM Fel d 1, fluorochrome 1,8-ANS): 26700 nM; Ki (Fel d 1; 5 μM Fel d 1, fluorochrome 1-NPN): 14400 nM; inhibition at 100 µM (Fel d 1; [6]): 91.7%; inhibition at 50 µM (Ory c 3): 76.2% |
| CC(C)=CCC/C(C)=C/CC/C(C)=C/CO [Farnesol, farnesol] | 98.9 | 95.5 | 96.0 | – | 91.3 | 11.2 | inhibition at 50 µM (Can f 1; 5 μM Can f 1-1,8-ANS complex, 50 μM ligand, n = 2): 43.1%; inhibition at 50 µM (human LCN1): 90.9%; Ki (Cav p 1.0101; Ki (printed in Figure 6D), Cav p 1.0101, titration 0–60 μM ligand, unit inferred): 580 nM; Ki (Cav p 1.0101; [1]): 600 nM; Ki (Cav p 1.0201; 5 μM Cav p 1.0201, fluorochrome 1-AMA, read-out: Ligand inhibition constant Ki): 600 nM; Ki (Ory c 2): 1100 nM |
